This is an account of results in patent publication US20180186769A1, “6-AMINO-5-FLUORO-5-(FLUOROMETHYL)-2,3,4,5-TETRAHYDROPYRIDIN-2-YL-PHENYL-5-(METHOXY-D3)-PYRAZINE-2-CARBOXAMIDES AND FLUORINATED DERIVATIVES THEREOF AS BACE1 INHIBITORS” (H. Lundbeck A/S, priority 2016, published 2018).

Structures are written as SMILES. Bounds are passed on as bounds.

Data set [1] is described as follows: Clearance in microsomes, human. The data set is classed as in vitro ADME. As to conditions: read-out: CLint, Human (L/h/kg) ± SD (converted). The text has this: (§1) Deuterated compounds were compared to their non-deuterated parent counterparts to determine the impact of deuteration on clearance results
Data set [2] in a line: Clearance in microsomes, rat. It counts as in vitro ADME. The conditions noted are these: read-out: CLint, Rat (L/h/kg) ± SD (converted).
From the text: as §1

Data set [3] in a line: Clearance in microsomes, dog. The data set is classed as in vitro ADME. As to conditions: read-out: CLint, Dog (L/h/kg) ± SD (converted).
From the text: as §1

Data set [4] in a line: Clearance in microsomes, cyno. It counts as in vitro ADME. The conditions noted are these: cynomolgus monkey, read-out: CLint, Cyno (L/h/kg) ± SD (converted).
From the text: as §1

Data set [5] can be described thus: Clearance in hepatocytes, human. It counts as in vitro ADME. As to conditions: read-out: CLint, Human (L/h/kg) ± SD (converted).
From the text: as §1

Data set [6] can be described thus: Clearance in hepatocytes, rat. It counts as in vitro ADME. As to conditions: read-out: CLint, Rat (L/h/kg) ± SD (converted).
From the text: as §1

A short description of data set [7]: Clearance in hepatocytes, dog. The data set is classed as in vitro ADME. The conditions noted are these: read-out: CLint, Dog (L/h/kg) ± SD (converted).
From the text: as §1

Data set [8] is described as follows: Clearance in hepatocytes, cyno. The data set is classed as in vitro ADME. The conditions noted are these: cynomolgus monkey, read-out: CLint, Cyno (L/h/kg) ± SD (converted).
From the text: as §1

The test system of another data set is P-gp (MDR1). In words: MDCK-MDR1 assay (permeability, efflux ratio). As to conditions: dog, Papp BA/Papp AB. It counts as in vitro ADME. Here is the method:
The permeability of the test compounds was assessed in MDCK-MDR1 cells that were cultured to confluency (4-6 days) in a 96 transwell plate. Test compounds were diluted with the transport buffer (HBSS+1% BSA) to a concentration of 0.5 μM and applied to the apical or basolateral side of the cell monolayer. Permeation of the test compounds from A to B direction or B to A direction was determined in triplicate over a 60-minute incubation time at 37° C. and 5% CO2 with a relative humidity of 95%. Test compounds were quantified by LC-MS/MS analysis based on the peaks area ratios of analyte/IS in both the receiver and donor wells of the transwell plate.
The apparent permeability coefficient Papp (cm/s) was calculated using the equation: […]
Where dCr/dt is the cumulative concentration of compound in the receiver chamber as a function of time (μM/s); Vr is the solution volume in the receiver chamber (0.05 mL on the apical side; 0.25 mL on the basolateral side); A is the surface area for the transport, i.e. 0.0804 cm^2 for the area of the monolayer; CO is the initial concentration in the donor chamber (μM).
Compounds are classified Pgp substrates when efflux ratio (Papp BA/Papp AB) is ≥2.

Data set [9] addresses T1, BACE1 (Homo sapiens, UniProt P56817). The data set can be described thus: BACE1 efficacy assay (FRET-based). The data set is classed as biochemical. Details: purchased Life Technologies P2985. The conditions noted are these: 10 μM test compound. As for the experimental part: The efficacy assay was performed as a FRET-based assay using a commercially available BACE1 kit (Life Technologies, P2985). 2 μl test compound at 10 μM (final concentration) and 15 μl BACE1 enzyme from the kit (final concentration 3 nM) were preincubated for 15 minutes at room temperature before addition of 15 μl of substrate from the kit (250 nM final concentration) and incubated for additional 90 minutes at room temperature. The assay plate was subsequently read in a Pherastar (Ex540/Em590). The enzyme activity observed in presence of test compound were normalized to the enzyme activity observed in presence of buffer and 10 μM (final concentration) of the high affinity BACE1 reference inhibitor (S)-6-[3-Chloro-5-(5-prop-1-ynyl-pyridin-3-yl)-thiophen-2-yl]-2-imino-3,6-dimethyl-tetrahydropyrimidin-4-one, respectively. The efficacy of the test compounds was evaluated at 10 μM (final concentration) and defined as the percent inhibition of the enzyme activity using the equation % inhibition=100%−normalized enzyme activity in percent.

Data set [10] deals with T1, BACE1. The data set can be described thus: BACE1 binding assay (SPA-based). As to conditions: pH 4.5, 10 nM radioligand. Details: biotin (biotinylated form); made in house; host or cells: Freestyle HEK293 cells. As for the experimental part:
The binding assay was performed as SPA-based assay using a biotinylated form of human BACE1 recombinantly expressed and subsequently purified from Freestyle HEK293 cells. The binding assay was run in a 50 mM sodium acetate buffer, pH 4.5 containing 50 mM NaCl and 0.03% Tween-20 in white clear bottom 384 plates (Corning #3653). […] The plates were incubated for one hour at room temperature and counted in a Wallac Trilux counter. Total and non-specific binding were determined using buffer and 1 μM (final concentration) of the high affinity BACE1 reference inhibitor (S)-6-[3-chloro-5-(5-prop-1-ynyl-pyridin-3-yl)-thiophen-2-yl]-2-imino-3,6-dimethyl-tetrahydro-pyrimidin-4-one, respectively. For each test compound, a IC50 value (the concentration mediating 50% inhibition of the specific binding of the radioligand) was determined from concentration-response curve and used to calculate the Ki from the equation Ki=IC50/(1+L/Kd), where L and Kd are the final concentration of the radioligand used in the assay and the dissociation constant of the radioligand, respectively. The Kd of the radioligand was determined from saturation binding experiments.

What is called efflux ratio is a quotient of directional permeabilities that is used to spot active efflux. The term inhibition denotes the change of the read-out against control, counted positive when it falls. A lower inhibition goes with little suppression. What is called Ki is a measure of affinity in units of concentration, obtained from inhibition or displacement. A high value points to weaker binding.

T1 sequence (P56817 46-501): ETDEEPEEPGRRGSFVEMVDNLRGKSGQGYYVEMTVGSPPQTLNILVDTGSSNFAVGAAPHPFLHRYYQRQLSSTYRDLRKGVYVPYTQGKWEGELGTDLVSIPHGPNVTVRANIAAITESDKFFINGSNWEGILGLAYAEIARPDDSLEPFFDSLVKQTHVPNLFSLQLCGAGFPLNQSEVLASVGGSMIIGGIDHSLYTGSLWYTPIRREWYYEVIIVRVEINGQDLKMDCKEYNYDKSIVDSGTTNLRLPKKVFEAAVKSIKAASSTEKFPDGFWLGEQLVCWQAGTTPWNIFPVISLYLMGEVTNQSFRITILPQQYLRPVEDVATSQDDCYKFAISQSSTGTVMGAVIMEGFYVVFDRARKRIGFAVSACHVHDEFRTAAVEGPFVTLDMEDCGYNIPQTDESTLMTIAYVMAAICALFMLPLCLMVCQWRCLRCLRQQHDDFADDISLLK

As to `[2H]C([2H])([2H])Oc1ccc(C(=O)Nc2ccc(F)c([C@@]3(C(F)F)N=C(N)CCC3(F)F)c2)nc1` [Compound Y], the CLint scaled at 1 µM in [1] is 0.5 L/h/kg; in data set [2], 1 L/h/kg; in data set [3] it was 21 L/h/kg; in [4], 12 L/h/kg; in data set [5], 0.29 L/h/kg; in data set [6], 2.1 L/h/kg. Besides, the CLint scaled at 1 µM in data set [7] is 57 L/h/kg; in data set [8], 14 L/h/kg. Also, the CLint scaled at 0.1 µM was less than 0.1 L/h/kg in data set [5], 1.4 L/h/kg in [6], 98 L/h/kg in [7] and 80 L/h/kg in data set [8]. Further, the CLint scaled at 0.3 µM in data set [5] is less than 0.1 L/h/kg; in [6] it was 1 L/h/kg; in [7] it was 84 L/h/kg; in data set [8] it was 32 L/h/kg.
For the molecule `[2H]C([2H])([2H])Oc1cnc(C(=O)Nc2ccc(F)c([C@]3(CF)CC[C@@](F)(CF)C(N)=N3)c2)cn1` [Example 4, N-[3-[(2S,5S)-6-amino-5-fluoro-2,5-bis(fluoromethyl)-2,3,4,5-tetrahydropyridin-2-yl]-4-fluoro-phenyl]-5-(methoxy-d3)pyrazine-2-carboxamide], the efflux ratio at 60 min, 0.5 μM in the data set with P-gp (MDR1) was determined as 0.73. At 10 µM the inhibition on BACE1 [9] was 97%. For the same molecule, on BACE1 [10], the Ki is 14 nM.
For the molecule `COc1cnc(C(=O)Nc2ccc(F)c([C@]3(C)CC[C@@](F)(CF)C(N)=N3)c2)cn1` [Compound Z], the CLint scaled at 0.1 µM in [1] (0.1 microM) is 1 L/h/kg; in data set [2] (0.1 microM), 2.7 L/h/kg; in data set [3] (0.1 microM) it was 40 L/h/kg; in data set [4] (0.1 microM), 70 L/h/kg; in data set [5], 1 L/h/kg; in data set [6], 1.7 L/h/kg. The CLint scaled at 0.1 µM in [7] was 112 L/h/kg; in data set [8], 137 L/h/kg. Further, the CLint scaled at 0.3 µM in [1] (0.3 microM) is 0.75 L/h/kg; in [2] (0.3 microM), 1.8 L/h/kg; in [3] (0.3 microM), 31 L/h/kg; in data set [4] (0.3 microM), 61 L/h/kg; in [5], 0.95 L/h/kg; in data set [6] it was 1.5 L/h/kg. The CLint scaled at 0.3 µM was 101 L/h/kg in data set [7] and 135 L/h/kg in data set [8]. For the same molecule, the CLint scaled at 1 µM in [1] was 0.51 L/h/kg; in data set [2] it was 1.3 L/h/kg; in data set [3], 25 L/h/kg; in [4], 34 L/h/kg; in data set [5], 0.72 L/h/kg; in [6] it was 1 L/h/kg. Besides, the CLint scaled at 1 µM is 64 L/h/kg in [7] and 75 L/h/kg in [8].
Regarding `[2H]C([2H])([2H])Oc1cnc(C(=O)Nc2cc(F)c(F)c([C@]3(C)CC[C@](F)(CF)C(N)=N3)c2)cn1` [Example 2, N-[3-[(2S,5R)-6-amino-5-fluoro-5-(fluoromethyl)-2-methyl-2,3,4,5-tetrahydropyridin-2-yl]-4,5-difluoro-phenyl]-5-(methoxy-d3)pyrazine-2-carboxamide], the efflux ratio at 60 min, 0.5 μM with P-gp (MDR1) came out at 0.96. For the same molecule, testing at 10 µM against BACE1 [9] gave an inhibition of 99%. The same molecule gave a Ki at BACE1 [10] of 84 nM.
On the same counts, the results for `[2H]C([2H])([2H])Oc1cnc(C(=O)Nc2cc(F)c(F)c([C@]3(C)CC[C@@](F)(CF)C(N)=N3)c2)cn1` [Example 5, N-[3-[(2S,5S)-6-amino-5-fluoro-5-(fluoromethyl)-2-methyl-2,3,4,5-tetrahydropyridin-2-yl]-4,5-difluoro-phenyl]-5-(methoxy-d3)pyrazine-2-carboxamide] are 0.77, 100% and 9.8 nM.
On the same counts, the results for `[2H]C([2H])([2H])Oc1cnc(C(=O)Nc2ccc(F)c([C@]3(CF)CC[C@](F)(CF)C(N)=N3)c2)cn1` [Example 3, N-[3-[(2S,5R)-6-amino-5-fluoro-2,5-bis(fluoromethyl)-2,3,4,5-tetrahydropyridin-2-yl]-4-fluoro-phenyl]-5-(methoxy-d3)pyrazine-2-carboxamide] are 0.85, 97% and 67 nM.
